From patent EP3099166B1, “METHOD TO CONTROL ST[…] SEPTORIA TRITICI” (priority 2014, dated 2015) come the findings set out here.

In experiment [1] the test system is Septoria tritici. In words: Glasshouse trial on wheat, curative (K4) application (Example 2). In kind it is in vivo. The settings on record: for % Efficacy: wheat, R12 isolates, G143A, 4 weeks after application. Here is the method: (§1) The trials were conducted under glasshouse conditions. Wheat was planted and grown under standard conditions with adequate supply of water and nutrients. At BBCH 11, an application of the test compounds was made. Fungicides were applied curatively 4 days after inoculation (K4) with different rates. The Septoria isolates used for inoculation were classified "R12" according their cyp51 haplotype (less sensitive to triazoles due to V136A, 1381V, Y461S/H and S524T mutation in cyp51 gene) and resistant to strobilurins due to G143A mutation in cytochrome b gene.
(§2) Disease levels were assessed by evaluating the average percentage of diseased leaf area 4 weeks after application.
(§3) The disease levels were converted into efficacies. An efficacy of 0 means that the level of the treated plants corresponds to that of the untreated control plants; an efficacy of 100 means that the treated plants had no disease at all.

Experiment [2] relates to Septoria tritici. Kind of experiment: Glasshouse trial on wheat, preventive (P1) or curative (K4) application (Example 1). In kind it is in vivo. The settings on record: Zymoseptoria tritici. Here is the method: as §1, with “applied preventively (1 day before inoculation, P1) or” for “applied”, “curatively (4” for “curatively 4”, “after inoculation, K4) and” for “after inoculation (K4)”, “V136A, I381V,” for “V136A, 1381V,”
as §2, §3

[3] abbreviates: Zymoseptoria tritici, 672 h, read-out: % Efficacy.

The structures appear in SMILES notation. Where two headings read alike, the source gives them in different places.

As for `CO/C=C(/C(=O)OC)c1ccccc1COc1cccc(C(F)(F)F)n1` [Picoxystrobin, picoxystrobin], the “% Efficacy” value in the experiment on Septoria tritici [1] (83 g a.i./ha, curative (K4, 4 days after inoculation)) is reported as 0%; in the experiment with Septoria tritici [1] (250 g a.i./ha, curative (K4)) it was 7%.
In the case of `CCCC1COC(Cn2cncn2)(c2ccc(Cl)cc2Cl)O1` (stereo not drawn) [Propiconazole, propiconazole], in the experiment on Septoria tritici [1] (setting [3]), the Emax at 33 g/ha amounted to 7% and the Emax at 125 g/ha amounted to 20%. Also, the Percent disease control efficacy at 33 g/ha in the experiment with Septoria tritici [2] (672 h, read-out: % Efficacy, 33 g a.i./ha, curative (K4), R12 isolates, G143A, 4 weeks after application) came to 7%. Further, the Percent disease control efficacy at 33 g/ha in the experiment with Septoria tritici [2] (672 h, read-out: % Efficacy, 33 g a.i./ha, preventative (P1), R12 isolates, G143A, 4 weeks after application) was 10%. Also, the Percent disease control efficacy at 125 g/ha in the experiment on Septoria tritici [2] (672 h, read-out: % Efficacy, 125 g a.i./ha, preventative (P1), R12 isolates, G143A, 4 weeks after application) turned out to be 40%.
For the compound `OC(Cc1ccccc1Cl)(Cn1nc[nH]c1=S)C1(Cl)CC1` (stereo not drawn) [Prothioconazole, prothioconazole], the Emax at 67 g/ha in the experiment on Septoria tritici [1] (setting [3]) came to 7%. Besides, the Percent disease control efficacy at 67 g/ha with Septoria tritici [2] (672 h, read-out: % Efficacy, 67 g a.i./ha, curative (K4), R12 isolates, G143A, 4 weeks after application) stood at 7%; in the experiment with Septoria tritici [2] (672 h, read-out: % Efficacy, 67 g a.i./ha, preventative (P1), R12 isolates, G143A, 4 weeks after application), 10%.
Take `COC(=O)N(OC)c1ccccc1COc1ccn(-c2ccc(Cl)cc2)n1` [Pyraclostrobin, pyraclostrobin]: the Percent disease control efficacy at 250 g/ha in the experiment with Septoria tritici [2] (672 h, read-out: % Efficacy, 250 g a.i./ha, preventative (P1), R12 isolates, G143A, 4 weeks after application) is 51%. Further, in the experiment with Septoria tritici [2] (read-out: % Efficacy, 83 g a.i./ha, curative (K4, 4 days after inoculation), R12 isolates, G143A, assessed 4 weeks after application), the Percent disease control efficacy at 83 g/ha came out at 10%.
